Experimental data from patent US20120184504A1, “"The Use of a PAR-1 Antagonist in Combination with a P2Y12 ADP Receptor Antagonist for Inhibition of Thrombosis"” (priority 2009, published 2012).
Each block holds one molecule with its values, some of them ahead of it.

Experiments:
Assay type in all cases: in vivo, cynomolgus monkeys
[1] = tested on: platelet aggregation induced by ADP (10 μM); assay: Ex vivo whole blood platelet aggregation induced by ADP
Experimental: (§1) Animals instrumented to produce CFRs were administered SCH 602539, cangrelor, or a combination of SCH 602539 and cangrelor. The dosing regimens of SCH 602539 were selected to provide a broad range of inhibition of platelet aggregation induced by 1 μM thrombin receptor agonist peptide (TRAP), whereas the doses of cangrelor were selected to achieve 50%-60% inhibition of platelet aggregation induced by 10 μM ADP (the degree of inhibition obtained with clopidogrel). Group 1 received drug vehicle only (20% hydroxypropyl betacyclodextran or saline, 2 mL i.v.). Group 2 received SCH 602539 dissolved in 20% hydroxypropyl betacyclodextran administered as sequential i.v. boluses of 0.1, 0.3, or 1 mg/kg, at 30-minute intervals. Group 3 received cangrelor dissolved in saline and administered as an intravenous infusion of 0.1, 0.2, or 0.3 μg/kg/min for 30 minutes each. Group 4 received a combination of SCH 602539 bolus plus cangrelor infusion (at respective doses of: 1) 0.05 mg/kg+0.05 μg/kg/min; 2) 0.1 mg/kg+0.1 μg/kg/min; and 3) 0.15 mg/kg+0.1 μg/kg/min. The three dose regimens within each group were administered sequentially over the consecutive 30-minute periods coinciding with the re-induction of endothelial injury. Study drug or vehicle was administered after stable CFRs were achieved, and upon the completion of a 30-minute baseline CFR collection period, drug(s) or vehicle were administered incrementally (every 30 minutes) either as a bolus (SCH 602539) or as an infusion (cangrelor), and their effects on CFRs were monitored in the next three 30-minute observation periods. Blood samples (3 mL) were collected from the femoral arterial catheter at the end of each 30-minute observation period for assessment of ex vivo platelet aggregation and coagulation parameters.
(§2) Platelet aggregation studies were performed ex viva on blood samples obtained from the monkeys subjected to the Folts model, using a ChronoLog whole blood aggregometer (Model 540VS, Havertown, Pa.). Briefly, 0.5 mL of blood was incubated with 0.5 mL of normal saline at 37° C. in a cuvette containing a stir bar for 2 minutes. Platelet agonists used in this study included TRAP (3 μM), ADP (10 μM), the thromboxane A2 mimetic U46619 (10 μM), and collagen (3 μg/mL). Platelet aggregation was monitored for 5 minutes following the addition of the agonist. The peak aggregation response was recorded in ohms. In addition, standard coagulation parameters, including prothrombin time (PT), activated partial thromboplastin time (APTT), and activated clotting time (ACT), were assessed.

[2] = tested on: platelet aggregation induced by thromboxane A2 mimetic U46619 (10 μM); assay: Ex vivo whole blood platelet aggregation induced by U46619
Experimental: as §1, §2

[3] = tested on: platelet aggregation induced by collagen (3 μg/mL); assay: Ex vivo whole blood platelet aggregation induced by collagen
Experimental: as §1, §2

[4] = Prothrombin time (PT) in plasma, Folts model animals; conditions: for PT: i.v.; for effect on PT: tested doses
Experimental: as §1, §2
(§3) PT and APTT assays were performed with plasma, while the ACT assay was performed with whole blood. Data are presented as mean±SEM (n=5-6/group).

[5] = Activated partial thromboplastin time (APTT) in plasma, Folts model animals; conditions: for APTT: i.v.; for effect on APTT: tested doses
Experimental: as §1, §2, §3

[6] = Activated clotting time (ACT) in whole blood, Folts model animals; conditions: for ACT: i.v.; for effect on ACT: tested doses
Experimental: as §1, §2, §3

[7] = SCH 602539 0.3 mg/kg and 1 mg/kg
[8] = cangrelor 0.2 and 0.3 μg/kg/min

Compound: CCOC(=O)N[C@@H]1CC[C@@H]2[C@@H](C1)C[C@H]1C(=O)O[C@H](C)[C@H]1[C@H]2/C=C/c1ccc(-c2ccccn2)cn1 [SCH 602539]
Aggregation, ADP ([1]; SCH 602539 0.1 mg/kg, baseline 15 ± 3): 14 ± 2 ohms | effect on aggregation induced by 10 μM ADP [1, 7]: did not affect | Aggregation, ADP ([1]; SCH 602539 0.3 mg/kg, baseline 15 ± 3): 16 ± 3 ohms | Aggregation, ADP ([1]; SCH 602539 1.0 mg/kg, baseline 15 ± 3): 13 ± 4 ohms | Aggregation, U46619 ([2]; SCH 602539 0.1 mg/kg, baseline 20 ± 5): 17 ± 3 ohms | effect on aggregation induced by 10 μM U46619 [2, 7]: did not affect | Aggregation, U46619 ([2]; SCH 602539 0.3 mg/kg, baseline 20 ± 5): 19 ± 4 ohms | Aggregation, U46619 ([2]; SCH 602539 1.0 mg/kg, baseline 20 ± 5): 21 ± 5 ohms | Aggregation, Collagen ([3]; SCH 602539 0.1 mg/kg, baseline 27 ± 4): 26 ± 2 ohms | effect on aggregation induced by 3 μg/mL collagen [3, 7]: did not affect | Aggregation, Collagen ([3]; SCH 602539 0.3 mg/kg, baseline 27 ± 4): 24 ± 3 ohms | Aggregation, Collagen ([3]; SCH 602539 1.0 mg/kg, baseline 27 ± 4): 29 ± 5 ohms | PT ([4]; SCH 602539 0.1 mg/kg, bolus, plasma, baseline 11.6 ± 0.4): 11.5 ± 0.2 s | PT ([4]; SCH 602539 0.3 mg/kg, bolus, baseline 11.6 ± 0.4): 11.8 ± 0.4 s | PT ([4]; SCH 602539 1.0 mg/kg, bolus, baseline 11.6 ± 0.4): 12.8 ± 1.1 s | effect on PT [4]: no effect | APTT ([5]; SCH 602539 0.1 mg/kg, bolus, plasma, baseline 22.8 ± 1.7): 22.4 ± 1.5 s | APTT ([5]; SCH 602539 0.3 mg/kg, bolus, baseline 22.8 ± 1.7): 23.4 ± 2.2 s | APTT ([5]; SCH 602539 1.0 mg/kg, bolus, baseline 22.8 ± 1.7): 25.4 ± 4.9 s | effect on APTT [5]: no effect | ACT ([6]; SCH 602539 0.1 mg/kg, bolus, whole blood, baseline 79 ± 5.9): 73 ± 2.2 s | ACT ([6]; SCH 602539 0.3 mg/kg, bolus, baseline 79 ± 5.9): 71 ± 4.4 s | ACT ([6]; SCH 602539 1.0 mg/kg, bolus, baseline 79 ± 5.9): 67 ± 4.9 s | effect on ACT [6]: no effect

PT ([4]; Cangrelor 0.1 μg/kg/min × 30 min, plasma, mean±SEM, baseline 10.6 ± 0.4): 10.4 ± 0.3 s | PT ([4]; Cangrelor 0.2 μg/kg/min × 30 min, baseline 10.6 ± 0.4): 10.8 ± 0.6 s | PT ([4]; Cangrelor 0.3 μg/kg/min × 30 min, baseline 10.6 ± 0.4): 10.7 ± 0.6 s | effect on PT [4]: no effect | APTT ([5]; Cangrelor 0.1 μg/kg/min × 30 min, plasma, baseline 22.5 ± 1.6): 23.6 ± 2.6 s | APTT ([5]; Cangrelor 0.2 μg/kg/min × 30 min, baseline 22.5 ± 1.6): 22.1 ± 1.3 s | APTT ([5]; Cangrelor 0.3 μg/kg/min × 30 min, baseline 22.5 ± 1.6): 22.2 ± 2.0 s | effect on APTT [5]: no effect | ACT ([6]; Cangrelor 0.1 μg/kg/min × 30 min, whole blood, baseline 77 ± 3.7): 79 ± 2.3 s | ACT ([6]; Cangrelor 0.2 μg/kg/min × 30 min, baseline 77 ± 3.7): 76 ± 1.7 s | ACT ([6]; Cangrelor 0.3 μg/kg/min × 30 min, baseline 77 ± 3.7): 74 ± 3.5 s | effect on ACT [6]: no effect
Compound: CSCCNc1nc(SCCC(F)(F)F)nc2c1ncn2[C@@H]1O[C@H](COP(=O)(O)OP(=O)(O)C(Cl)(Cl)P(=O)(O)O)[C@@H](O)[C@H]1O [Cangrelor]
Aggregation, ADP ([1]; Cangrelor 0.1 μg/kg/min, baseline 14 ± 3): 10 ± 2 ohms | Aggregation, ADP ([1]; Cangrelor 0.2 μg/kg/min, baseline 14 ± 3): 7 ± 1 ohms | Aggregation, ADP ([1]; Cangrelor 0.3 μg/kg/min, baseline 14 ± 3): 6 ± 1 ohms | Aggregation, U46619 ([2]; Cangrelor 0.1 μg/kg/min, baseline 15 ± 3): 12 ± 3 ohms | Aggregation, U46619 ([2]; Cangrelor 0.2 μg/kg/min, baseline 15 ± 3): 10 ± 4 ohms | Aggregation, U46619 ([2]; Cangrelor 0.3 μg/kg/min, baseline 15 ± 3): 10 ± 4 ohms | effect on aggregation stimulated by 10 μM U46619 [2, 8]: did not interfere | Aggregation, Collagen ([3]; Cangrelor 0.1 μg/kg/min, baseline 24 ± 3): 20 ± 3 ohms | Aggregation, Collagen ([3]; Cangrelor 0.2 μg/kg/min, baseline 24 ± 3): 20 ± 4 ohms | Aggregation, Collagen ([3]; Cangrelor 0.3 μg/kg/min, baseline 24 ± 3): 20 ± 3 ohms | effect on aggregation stimulated by 3 μg/mL collagen [3, 8]: did not interfere | inhibition of aggregation induced by collagen (discussion) ([3]; cangrelor, tested doses): modest numeric inhibition
